Laboratory results as given in the METLIN SMRT retention time set (Domingo-Almenara et al. 2019).

Experiment: gradient 5% acetonitrile 3 min, to 50% in 2 min, to 85% in 15 min, held 3 min, 100 µL/min
Conditions: column: Zorbax Extend-C18 2.1 x 50 mm; eluents: water / acetonitrile, 0.1% formic acid
How it was run: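 A Zorbax Extend-C18 column (2.1 × 50 mm, 1.8 μm) run at 100 μL/min with water and acetonitrile, both containing 0.1% formic acid, separated mixtures of ~100 pure standards. The HPLC was coupled to a quadrupole time-of-flight mass spectrometer operated in positive and negative ionization mode, with dead and dwell volumes of 40 μL and 900 μL. Each retention time was taken from a computationally picked adduct peak that was then manually inspected.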
In the case of `Cc1ccc(-c2nnc(N3CCC(C(=O)N4CCC5(CC4)OCCO5)CC3)o2)cc1`, the RP-LC retention time is reported as 755 s.
`O=C(NC1CCCCC1)C1CCN(S(=O)(=O)c2cc(-c3noc(C4CCC4)n3)cs2)CC1` showed an RP-LC retention time of 1070 s.
Work on `COc1ccc(CC(=O)N2C[C@@H]3C[C@H](NC(=O)c4ccccc4)[C@H]2C3)cc1` yielded an RP-LC retention time of 725 s.
In the case of `CCc1ccc(CNC(=O)Cn2ccc3ccc(N4CCCCC4)nc32)cc1`, the RP-LC retention time is reported as 999 s.
`O=C(Cn1c(=O)c(=O)n(Cc2ccccc2)c2ncccc21)NCc1ccccn1` gave an RP-LC retention time of 643 s.
In the case of `O=C(NC1CCCC1)C1CCCN(c2ccc3cc(S(=O)(=O)N4CCCC4)ccc3n2)C1` (stereo not drawn), the RP-LC retention time is reported as 716 s.
`COc1ccc(N2CCN(c3cc(C(=O)O)c4cc(NC(C)=O)ccc4n3)CC2)cc1` gave an RP-LC retention time of 599 s.
With `c1ccc(CNc2c(-c3ccccc3)nc3ncccn23)cc1` the RP-LC retention time was 709 s.
For `Cn1cc(S(=O)(=O)NCc2cccs2)c(=O)n(C)c1=O`, the RP-LC retention time was 635 s.
`CC(C)N1CCn2cc(S(=O)(=O)Nc3ccc(Cl)cc3F)cc2C1=O` showed an RP-LC retention time of 812 s.
Molecule `CC(C)c1nnc(-c2ccc(=O)n(CC(=O)N3CCC4(CC3)OCCO4)c2)o1` has an RP-LC retention time of 609 s.
`COc1ccc(CN2CCc3nc(N4CCN(c5ccccc5F)CC4)ncc3C2)cc1` showed an RP-LC retention time of 773 s.
For `O=C(NCCC1=CCCCC1)c1nnc(-c2ccc(S(=O)(=O)N3CCOCC3)cc2)o1`, the RP-LC retention time was 984 s.
Work on `COc1ccc(S(=O)(=O)Nc2cccn3c(C4CCC4)nnc23)cc1Cl` yielded an RP-LC retention time of 822 s.
`CCOC(=O)c1c(C)[nH]c(C(=O)N2CCC(C(C)C(=O)NCc3ccc(C)cc3)CC2)c1C` (stereo not drawn) showed an RP-LC retention time of 846 s.
`CN(C)c1cccc(C(=O)Nc2cnn(-c3ncc(N4CCCC4)cn3)c2)c1` showed an RP-LC retention time of 749 s.
With `CCOC(=O)Cc1csc(NC(=O)Cn2nc3c(cc2=O)CCCCC3)n1` the RP-LC retention time was 769 s.
`CCCS(=O)(=O)N1CCCCC1c1nc(-c2cccnc2)n[nH]1` (stereo not drawn) showed an RP-LC retention time of 601 s.
Work on `CCC(=O)N1CCc2ccccc2C1C(=O)NCc1cccc(Br)c1` (stereo not drawn) yielded an RP-LC retention time of 828 s.
`CCn1cc(-c2nc(C(=O)NCc3ccc(F)cc3Cl)cs2)c2cccnc21` gave an RP-LC retention time of 1070 s.
In the case of `NC(=O)C1CCN(C(=O)CN2CCC(Cc3ccccc3)CC2)CC1`, the RP-LC retention time is reported as 591 s.
`CCc1nnc(-c2ccc3ccn(CC(=O)NCCc4ccccc4)c3c2)o1` showed an RP-LC retention time of 836 s.
`Cc1cc(=O)c(OCc2ccccc2F)cn1CC(=O)NCc1ccccc1Cl` showed an RP-LC retention time of 632 s.
With `COc1ccc(C(=O)NC2CCN(c3cc(-c4cccs4)[nH]n3)C2)cc1` (stereo not drawn) the RP-LC retention time was 703 s.
With `CC(C)c1nccn1C1CN(C(=O)c2ccc3[nH]ccc3c2)C1` the RP-LC retention time was 580 s.
With `CC(C)c1ccc(C2C(C(=O)c3ccccc3)C(=O)C(=O)N2CCCN2CCOCC2)cc1` (stereo not drawn) the RP-LC retention time was 725 s.
`CC1(C)CC(=O)C(CC(=O)c2ccccc2)=C(NN=C(N)N)C1` gave an RP-LC retention time of 666 s.
Work on `CC(C)Oc1ccc(CNC(=O)c2nnc(-c3ccc(S(=O)(=O)N(C)C)cc3)o2)cc1` yielded an RP-LC retention time of 943 s.
For `COCCOCc1nc(C2CCCN2C(=O)c2sccc2C)no1` (stereo not drawn), the RP-LC retention time was 716 s.
With `CSc1cccc(NC(=O)C2CCCN(c3ccc(=O)n(-c4cccc(Cl)c4)n3)C2)c1` (stereo not drawn) the RP-LC retention time was 1010 s.
Molecule `O=C(NCCN1CCN(C(=O)NCCCc2ccccc2)CC1)c1ccc2c(c1)OCO2` has an RP-LC retention time of 581 s.
`O=S(=O)(Cc1ccccc1Cl)NCC1CCN(Cc2ccsc2)CC1` showed an RP-LC retention time of 588 s.
`O=C(NCCCN1CCCCC1)C1CN(S(=O)(=O)c2cccnc2)CC12CCCCC2` (stereo not drawn) gave an RP-LC retention time of 573 s.
Work on `CCc1ccc(CNC(=O)c2nc3cccnc3n(CC(C)C)c2=O)cc1` yielded an RP-LC retention time of 1100 s.
For `CCCNC(=O)C1CCCN(c2ccc(SCC(=O)Nc3cccc(C)c3C)nn2)C1` (stereo not drawn), the RP-LC retention time was 665 s.
With `CC(C)Oc1ccc(-c2noc(Cn3c(=O)n(-c4cccc(F)c4)c(=O)c4sccc43)n2)cc1` the RP-LC retention time was 1090 s.
`COc1cccc(CNC(=O)CCC2CCN(c3cc(NC4CC4)ncn3)CC2)c1` showed an RP-LC retention time of 575 s.
Work on `Cc1ccc(S(=O)(=O)N2CCC3(CC2)NCCN=C3NCc2ccc(C(F)(F)F)cc2)cc1` yielded an RP-LC retention time of 789 s.
`CS(=O)(=O)Nc1ccc(C2(C(=O)NCc3ccc(F)c(Cl)c3)CCCCC2)cc1` gave an RP-LC retention time of 950 s.
`Cc1nn(-c2nc(-c3ccc(Cl)cc3)cs2)c(C)c1CC(=O)Nc1cccc(C(F)(F)F)c1` gave an RP-LC retention time of 1380 s.
Molecule `O=C(Cc1ccc(Cl)cc1)N1CCN(c2cc(-c3cccnc3)[nH]n2)CC1` has an RP-LC retention time of 636 s.
For `COc1ccc(-c2noc(CC3CCN(C(=O)c4cncc(Br)c4)CC3)n2)cc1`, the RP-LC retention time was 909 s.
`CNC(=O)[C@@H]1CN(C(=O)c2sc(C)nc2C)C[C@H]1c1n[nH]c(C)n1` gave an RP-LC retention time of 559 s.
Work on `O=C(c1ccco1)N1CCCn2nc(-c3cccs3)cc2C1` yielded an RP-LC retention time of 750 s.
For `Cc1cc([N+](=O)[O-])ccc1NC(=O)c1ccc(-n2cnnn2)cc1`, the RP-LC retention time was 803 s.
With `COc1ccc(CC(=O)N2CCC3(CC2)NC(=O)c2ccc(F)cc2N3C)cc1` the RP-LC retention time was 759 s.
For `COc1ccc(C)cc1NC(=O)N1CCC2(CC1)NC(=O)c1ccc(F)cc1N2C`, the RP-LC retention time was 777 s.
`Cc1nn(C)c2nc(OCC(=O)Nc3ccc(Br)cc3F)cc(C(F)(F)F)c12` showed an RP-LC retention time of 1080 s.
`Cc1ccc2[nH]cc(CCN3CC(C(=O)Nc4nnc(C(C)(C)C)s4)CC3=O)c2c1` (stereo not drawn) gave an RP-LC retention time of 801 s.
Work on `Cc1ccc(Cn2c(=O)n(CCNC(=O)c3ccc4c(c3)OCO4)c3ncccc32)cc1` yielded an RP-LC retention time of 824 s.
Molecule `O=C(Nc1ccc(-c2cn3ccccc3n2)cc1)c1ccc([N+](=O)[O-])cc1` has an RP-LC retention time of 586 s.
In the case of `Cn1cc(CC(=O)Nc2ccc(F)cc2)c2cccnc21`, the RP-LC retention time is reported as 703 s.
Molecule `COCCc1noc(-c2cnc3nc(C)ccc3c2Nc2ccccc2)n1` has an RP-LC retention time of 677 s.
Work on `CCCN1CCN(C(=O)C2CCCN(c3nnc4ccc(C(F)(F)F)cn34)C2)CC1` (stereo not drawn) yielded an RP-LC retention time of 510 s.
For `Cc1nc2cc(N3CCC(C(=O)NCc4cccs4)CC3)cnc2nc1C`, the RP-LC retention time was 670 s.
In the case of `CC(C)Cn1cc(S(=O)(=O)Nc2cccc(Cl)c2)c2cccnc21`, the RP-LC retention time is reported as 912 s.
`O=C(NC1CCCC1)C1CCCN(c2ccc3cc(S(=O)(=O)N4CCCCC4)ccc3n2)C1` (stereo not drawn) showed an RP-LC retention time of 781 s.
Molecule `CC1(C(=O)NCc2ccccc2)CN(S(C)(=O)=O)CC(=O)N1Cc1ccccc1Cl` (stereo not drawn) has an RP-LC retention time of 778 s.
For `CC(=O)c1cccc(NC(=O)C(C)Oc2ccc(=O)n(-c3ccc(F)cc3)n2)c1` (stereo not drawn), the RP-LC retention time was 688 s.
Molecule `O=S(=O)(Nc1ccc(F)cc1)c1cccn2cnnc12` has an RP-LC retention time of 659 s.
`CCc1noc(-c2cnc3nc(C)ccc3c2NC(C)c2ccc(F)cc2)n1` (stereo not drawn) gave an RP-LC retention time of 798 s.
With `Cc1cc2cc(CNC(=O)C(C)Oc3ccccc3)ccc2[nH]1` (stereo not drawn) the RP-LC retention time was 792 s.
`CCN1C(=O)CCc2cc(NC(=O)Cc3ccccc3Cl)ccc21` gave an RP-LC retention time of 795 s.
In the case of `CC1CCCN(C(=O)C2c3ccccc3CC(=O)N2C)C1` (stereo not drawn), the RP-LC retention time is reported as 748 s.
For `O=C(CCNc1cnc2cnccn12)NCc1cccc(Cl)c1`, the RP-LC retention time was 590 s.
In the case of `CC1C(=O)NCCN1C(=O)c1ccc(Oc2ccccc2)cc1` (stereo not drawn), the RP-LC retention time is reported as 670 s.
`COc1ccccc1-c1nnc(-c2cc(S(=O)(=O)N(C)C)ccc2Cl)o1` showed an RP-LC retention time of 904 s.
With `CCn1cc(C)c(C(=O)O)c1CC(=O)N1CCCCC1` the RP-LC retention time was 694 s.
With `COc1ccc(C2(C)NC(=O)N(CC(=O)N3CCc4ccccc43)C2=O)cc1` (stereo not drawn) the RP-LC retention time was 750 s.
Molecule `Cc1ccsc1C(=O)NC1CCN(c2cc(-c3ccccc3)[nH]n2)C1` (stereo not drawn) has an RP-LC retention time of 704 s.
`O=C(Nc1ccc(Cl)cc1)C1CCN(C(=O)C2Sc3ccccc3NC2=O)CC1` (stereo not drawn) gave an RP-LC retention time of 819 s.
With `CC(C)n1c(=O)sc2cc(S(=O)(=O)N3CCC(C(=O)NCCN4CCCC4)CC3)ccc21` the RP-LC retention time was 648 s.
In the case of `COc1ccc(NC(=O)NCCn2c(C(F)(F)F)nc3cccnc32)cc1`, the RP-LC retention time is reported as 701 s.
`CCSc1nc2ccc(NS(=O)(=O)c3ccc(F)c(F)c3)cc2s1` gave an RP-LC retention time of 1070 s.
For `COC(=O)c1cccc(NC(=O)c2[nH]c3cc(C)sc3c2CN2CCOCC2)c1`, the RP-LC retention time was 673 s.
Work on `CCc1ccc(CNC(=O)c2ccc3ncnc(N4CCCC4)c3c2)cc1` yielded an RP-LC retention time of 697 s.
`CCC(CC)c1nnc(NC(=O)C2CC(=O)N(CCc3c[nH]c4ccc(C)cc34)C2)s1` (stereo not drawn) gave an RP-LC retention time of 856 s.
Molecule `Cc1ccc(S(=O)(=O)N2CCC(C(=O)NCc3csc(-c4ccccc4)n3)CC2)c(C)c1` has an RP-LC retention time of 996 s.
Molecule `O=C(Cn1c(=O)c2cccn2c2ccc(F)cc21)NCc1ccco1` has an RP-LC retention time of 767 s.
In the case of `CCOc1ccccc1CNC1CCN(c2ccc(C(=O)NC3CC3)cn2)C1` (stereo not drawn), the RP-LC retention time is reported as 579 s.
`CN(C)C(=O)c1ccc2c(c1)N(CC(=O)NCCCc1ccccc1)C(=O)CS2` gave an RP-LC retention time of 726 s.
Molecule `Cc1c(C#N)c2ccccc2n1CC(=O)NC(C)c1ccc2c(c1)OCCCO2` (stereo not drawn) has an RP-LC retention time of 892 s.
For `CCCOC(=O)C1=C(C)NC2=C(C(=O)C(C(=O)OC)C(C)C2)C1c1ccc(N(C)C)cc1` (stereo not drawn), the RP-LC retention time was 668 s.
Work on `CC(NC(=O)c1ccco1)c1nc(-c2ccc(N3CCOCC3)cc2)no1` (stereo not drawn) yielded an RP-LC retention time of 757 s.
With `Cc1ccc(S(=O)(=O)N2C(=O)CCC2C(=O)NC2CCCCC2)cc1C` (stereo not drawn) the RP-LC retention time was 916 s.
For `CCCn1c(=O)c2c(nc3n2CCN3c2ccc(OC)cc2)n(C)c1=O`, the RP-LC retention time was 834 s.
For `COC(=O)c1sccc1NC(=O)C1CCCN(c2ncnc3c2nc2n3CCCCC2)C1` (stereo not drawn), the RP-LC retention time was 922 s.
Work on `O=C(NCc1cccc2ccccc12)NCc1nnnn1-c1ccccc1` yielded an RP-LC retention time of 751 s.
